# Source: publication PMC4284516 (Scientific Reports, 2015)
# How the values were obtained:
# OF1 mice [1] = assay: 6-Hz electroshock-induced seizures; assay type: in vivo; conditions: levetiracetam 20 mg/kg i.p.
# Swiss mice = assay: Novel object recognition task
# OF1 mice [2] = assay: Mouse tetrad experiments; conditions: 15 mg/kg i.p.
# MAGL over FAAH = conditions: cited from earlier work
# OF1 mice [3] = assay: Elevated plus-maze test; conditions: diazepam 3 mg/kg p.o., 60 min before testing
# OF1 mice [4] = assay: Pentylenetetrazol; conditions: diazepam 3 mg/kg i.p.
# mice = conditions: cited from earlier work
# [5] = biological target: T1, human recombinant MAGL (rhMAGL) (Homo sapiens, UniProt Q99685); assay: MAGL biochemical assay; conditions: read-out: IC50, rhMAGL; 4-nitrophenylacetate substrate; N = 3
# T1 sequence (Q99685 1-303): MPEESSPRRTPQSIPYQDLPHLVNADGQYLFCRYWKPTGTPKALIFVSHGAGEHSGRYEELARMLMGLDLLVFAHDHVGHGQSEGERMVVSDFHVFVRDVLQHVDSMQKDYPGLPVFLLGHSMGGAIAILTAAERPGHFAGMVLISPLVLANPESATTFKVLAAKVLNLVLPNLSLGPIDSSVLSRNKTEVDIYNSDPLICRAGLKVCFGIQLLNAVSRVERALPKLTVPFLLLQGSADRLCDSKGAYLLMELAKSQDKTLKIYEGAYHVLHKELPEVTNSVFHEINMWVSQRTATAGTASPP
# [6] = tested on: PBQ-induced writhing in OF1 mice; assay: Phenylbenzoquinone; assay type: in vivo; conditions: combined with SAR127303 3 mg/kg p.o.
# rat hippocampal slices = assay: [3H]ACh release evoked by electrical depolarisation in hippocampal slices; assay type: cell-based, Sprague-Dawley rats; conditions: rimonabant 10^−7 mol/L
# NMRI mice = assay: Y-maze test; assay type: in vivo; conditions: 1.5 mg/kg, i.p.
compound,measurement,setting,value
CC[C@@H](C(N)=O)N1CCCC1=O [levetiracetam],protection in the 6-Hz test,OF1 mice [1],full protection
C[C@]12N[C@H](Cc3ccccc31)c1ccccc12 [MK-801],novelty index ratio versus control vehicle,Swiss mice; 0.125 mg/kg,significantly reduced
"Cc1c(C(=O)c2cccc3ccccc23)c2cccc3c2n1[C@H](CN1CCOCC1)CO3 [WIN55,512-2]",antinociception in the tail-flick test,OF1 mice [2],significant antinociceptive
same,catalepsy,OF1 mice [2],cataleptic
same,"duration of antinociceptive, hypothermic and cataleptic effects",OF1 mice [2],at least 4 hours
same,hypothermia,OF1 mice [2],hypothermic
same,locomotor activity,OF1 mice [2],decreased significantly
O=C(OC(C(F)(F)F)C(F)(F)F)N1CCC(C(O)(c2ccc3c(c2)OCO3)c2ccc3c(c2)OCO3)CC1 [KML29],selectivity for MAGL over FAAH and most other serine hydrolases,MAGL over FAAH,> 100 fold
CN1C(=O)CN=C(c2ccccc2)c2cc(Cl)ccc21 [diazepam],percentage of time in open arms,OF1 mice [3],opposite effects
same,protection in the PTZ test,OF1 mice [4],full protection
O=C(Oc1ccc([N+](=O)[O-])cc1)N1CCC(C(O)(c2ccc3c(c2)OCO3)c2ccc3c(c2)OCO3)CC1 [JZL184],dose impairing MWM performance (dose that also inhibits FAAH),mice,40 mg/kg
COc1ccc2c(C3COC(CCCNC(=O)OCC(N)=O)OC3)cccc2c1 (stereo not shown) [SSR411298],IC50,[5],> 10 µM
Cc1c(C(=O)NN2CCCCC2)nn(-c2ccc(Cl)cc2Cl)c1-c1ccc(Cl)cc1 [rimonabant],blockade of the anti-writhing effects of SAR127303,[6],blocked
same,novelty index ratio when coadministered with SAR127303,Swiss mice; rimonabant 3 mg/kg + SAR127303 1 mg/kg,significantly different from chance level
same,reversal of the effect of 2-AG at 10^−8 mol/L on [3H]-ACh release,rat hippocampal slices,completely reversed
c1ccc(C2(N3CCCCC3)CCCCC2)cc1 [PCP],spontaneous alternation versus vehicle,NMRI mice,significant reduction
